Test results published in US20170027973A1, “MODULARION OF INVARIANT NATURAL KILLER T CELLS IN THE TREATMENT OF SEPSIS” (LONDON HEALTH SCIENCES CENTRE RESEARCH INC., priority 2014, published 2017).

Experiments:
[1] = test system: surface TCR of iNKT cells; details: after 24 hours; cited from earlier work
invariant TCR = details: OCH compared to KRN7000; cited from earlier work
Jα18−/− mice with IAS = assay: IAS model in iNKT-deficient Jα18−/− mice: murine sepsis score; format: in vivo, mouse
Experimental: FIG. 4: Th2-polarizing glycolipid OCH reduces disease severity in IAS. C57BL/6 (B6) mice were concomitantly injected i.p. with fecal slurry (FS; 500 μL of 90 mg/mL solution) to induce intra-abdominal sepsis (IAS), and vehicle, OCH, or KRN7000. […] (c) iNKT-deficient Jα18−/− mice were given FS (500 μL of a 90 mg/mL solution) to induce IAS and concomitantly treated with OCH or vehicle. Murine sepsis scores were similar between vehicle and OCH-treated mice (n=3 per group). […] The percentages of T cells remained unchanged with administration of iNKT-specific glycolipid agonists (n=6, n=4, n=6, and n=3 for vehicle, OCH, Vehicle (KRN7000) and KRN7000 groups respectively). *p<0.05, **p<0.01 by Mann-Whitney U test. (d) Bacterial counts in blood and multiple organs were similar between vehicle-, OCH-, and KRN7000-treated mice with sepsis (n=7-9 per group). Data are representative of at least three independent experiments.
Stool from the cecum of euthanized naïve B6 mice was expressed through an enterotomy, homogenized, and suspended in 0.9% normal saline (NS) to produce a fecal slurry at a final concentration of 90 mg/mL, for use in experiments on the same day. […] The mice were monitored and scored by two independent investigators—one of whom was blinded to the treatment—every 2-3 hours for the first 12 hours, and then every 1-2 hours thereafter. […]

| Structure (SMILES) | potency at down-regulating the TCR relative to OCH [1] | binding affinity for the invariant TCR (invariant TCR) | disease severity (MSS) versus vehicle (Jα18−/− mice with IAS) |
| --- | --- | --- | --- |
| CCCCCCCCCCCCCCCCCCCCCCCCCC(=O)N[C@@H](CO[C@H]1O[C@H](CO)[C@H](O)[C@H](O)[C@H]1O)[C@H](O)[C@H](O)CCCCCCCCCCCCCC [KRN7000, reference compound] | approximately 10 fold | – | – |
| CCCCCCCCCCCCCCCCCCCCCCCC(=O)N[C@@H](COC1OC(CO)C(O)C(O)C1O)[C@H](O)[C@H](O)CCCCC (stereo partly drawn) [OCH] | – | lower | did not observe any differences |
